Data reported in PMC11447708, “Comprehensive Exploration of Bromophenol Derivatives: Promising Antibacterial Agents against SA and MRSA” (ACS Omega, 2024).
In brackets after ≈: the same amount, converted by molar mass. Where two headings read alike, the source gives them in different places.

Experiments:
MRSA = test: agar well diffusion, zone of inhibition; format: cell-based, Staphylococcus aureus; conditions: for Diameter of zone inhibition on MRSA: Supplement S4, antibiotic standards; for inhibition zone diameter MRSA: concentration (μg): 20 for 1-3, 10 for ampicillin and tobramycin, 30 for tetracycline
Procedure: Staphylococcus aureus ATCC 2793, Pseudomonas aeruginosa ATCC 27853, and P. aeruginosa PA14 were activated, cultured, and stored in a refrigerator at −25 °C in the Laboratory of Biotechnology, Faculty of Chemical, Da Nang University of Science and Technology, The University of Da Nang. The MRSA antibiotic-resistant strain was isolated, identified,[17] and kindly provided by Dr. Ngo Thai Bich Van, Faculty of Chemical, Da Nang University of Science and Technology, The University of Da Nang.
(§1) The susceptibility test was measured in vitro by employing the agar well diffusion method.[20]S. aureus ATCC 2793 and P. aeruginosa ATCC 27853 strains were used in this experiment. A suspension of the test organism was prepared in nutrient broth by overnight culture for 24 h at 37 °C and 7.0 pH. The agar plate surface was inoculated by spreading a volume of the microbial inoculum over the entire agar surface. Then, a hole with a diameter of 6 to 8 mm was punched aseptically with a sterile tip, and a volume (20 μL) of the tested solution at the desired concentration was introduced into the well. Then, agar plates were incubated under suitable conditions depending upon the test microorganism. After incubation, the plates were examined and the diameters of the zone of complete inhibition were observed.

S. aureus ATCC 2793 = test: agar well diffusion, zone of inhibition; format: cell-based, Staphylococcus aureus; conditions: for Diameter of zone inhibition on SA: Supplement S4, antibiotic standards; for inhibition zone diameter S. aureus: concentration (μg): 20 for 1-3, 10 for ampicillin and tobramycin, 30 for tetracycline
Procedure: as §1

S. aureus [1] = test: microbroth dilution assay (MIC, resazurin); format: cell-based, Staphylococcus aureus; conditions: 18 h, 37 °C; for MIC: Staphylococcus aureus
Procedure: (§2) The antibacterial efficacy of the chosen compounds was assessed through the microbroth dilution assay conducted in 96-well culture plates.[21] A stock solution with a concentration of 20 mg/mL was prepared in dimethyl sulfoxide (DMSO). Subsequently, autoclaved nutrient broth (100 μL) was introduced into the culture plate wells, with the initial row of the microtiter plate receiving 100 μL of the test material. 2-fold serial dilutions of the test compounds were then meticulously executed. To serve as an indicator, 20 μL of 2× resazurin solution was added to each well. Finally, 10 μL of the bacterial suspension was incorporated into each well, yielding a final concentration of 5 × 10^6 CFU/mL. The experiment was conducted in duplicate, and the plates were incubated at 37 °C. After 18 h, the plates were scrutinized for any change in color indicative of bacterial growth.

P. aeruginosa ATCC 27853 [2] = test: agar well diffusion, zone of inhibition; format: cell-based, Pseudomonas aeruginosa; conditions: for Diameter of zone inhibition on PA: Supplement S4, antibiotic standards; for inhibition zone diameter P. aeruginosa: concentration (μg): 20 for 1-3, 10 for ampicillin and tobramycin, 30 for tetracycline
Procedure: as §1

P. aeruginosa [3] = test: microbroth dilution assay (MIC, resazurin); format: cell-based, Pseudomonas aeruginosa; conditions: 18 h, 37 °C; for MIC: Pseudomonas aeruginosa
Procedure: as §2

P. aeruginosa ATCC 27853 [4] = test: biofilm formation inhibition, crystal violet assay; format: cell-based, Pseudomonas aeruginosa; conditions: mean ± SD, n = 3
Procedure: Biofilm formation was evaluated utilizing the crystal violet assay.[22] The P. aeruginosa ATCC 27853 strain was used in this experiment. The bacterial attachment was initiated by inoculating the culture medium with approximately 10^7 CFU/mL in polystyrene 96-well plates, followed by incubation at 37 °C for 2 h in aerobic conditions. Subsequent to the attachment phase, the medium was carefully aspirated, and the 96-well plates were rinsed with phosphate-buffered saline (PBS) (pH 7.0) to eliminate unattached cells. The fresh medium, along with tested compounds, was then introduced to assess the inhibitory impact on biofilm formation. Following an 18 h incubation at 37 °C, a crystal violet (CV) assay was conducted. The well plate was washed with PBS to eliminate unattached cells, and a 1% CV solution was added, allowing for a 30 min incubation at room temperature. After this period, the well plate underwent three PBS washes, and absolute ethanol was added, incubating for 15 min. Following the transfer of the stained solution to a new well plate, the absorbance was measured at 595 nm.

[5] = test system: pyocyanin production in the PA14 strain; test: pyocyanin inhibition assay (chloroform extraction); format: cell-based, Pseudomonas aeruginosa; conditions: half of the MIC, 12 h, mean ± SD, n = 3
Procedure: Following the specified incubation period, the cultures underwent centrifugation at 10,000 rpm for 10 min, leading to the collection of the supernatant. Subsequently, 3 mL of chloroform was added to 5 mL of the supernatant, and the mixture was vortexed for 20 s. After centrifugation at 5000 rpm for 10 min, the resulting blue layer at the bottom was transferred to a new tube. To each tube, 2 mL of 0.2 M HCl was added and vortexed for 20 s. The sample underwent subsequent centrifugation for 2 min at 5000 rpm, and 1 mL of the resulting pink layer was transferred to cuvettes. A blank was established using 0.2 M HCl. Spectrophotometric measurements were carried out at 520 nm.

HEK-293 cells = test: AlamarBlue cell viability assay; format: cell-based; conditions: Homo sapiens, HEK293, 24 h exposure
Procedure: HEK-293 cells were cultured in DMEM containing 25 mM glucose, 10% heat-inactivated fetal bovine serum (FBS), 100 U/mL penicillin, and 100 μg/mL streptomycin. Cells were incubated at 37 °C in a humidified atmosphere containing 95% air and 5% CO2.
[…] Untreated groups were set as the control (100% cell viability). On the 24th, cells were treated with the Invitrogen AlamarBlue cell viability reagent for an additional 2 h. Optical density (OD) values (at wavelengths of 570 and 600 nm) were then recorded. The percentage of cell viability was calculated according to the protocol provided by the manufacturer.

P. aeruginosa ATCC 27853 [6] = test: swarming motility; format: cell-based, Pseudomonas aeruginosa; conditions: 24 h at 37 °C; for migration distance (mm): swarming, control 100 mm
Procedure: The analysis was performed in Petri dishes with the LB minimal medium supplemented with 0.2% glucose and 0.5% agar, as described by Kearns.[24] Tested compounds were added to the motility agar at the desired concentration. Aliquots (1.0 μL) were taken from P. aeruginosa ATCC 27853 overnight cultures and spotted in the center of each well, and the migration zones were measured after 24 h of incubation at 37 °C. The inhibition rate was calculated as follows: [drawing 1] where Dtreated and Dcontrol are the migration distances in the treated and control samples, respectively.

P. aeruginosa [7] = test system: P. aeruginosa; set-up: method as in Liu et al.[7]; conditions: bromo benzenediol derivatives; ref Liu et al.[7]; cited from earlier work
S. aureus [8] = test system: S. aureus; set-up: method as in Liu et al.[7]; conditions: bromo benzenediol derivatives; ref Liu et al.[7]; cited from earlier work
[9] = test system: Staphylcoccus epidermidis; set-up: method as in Liu et al.[7]; conditions: ref Liu et al.[7]; cited from earlier work

Compound	Diameter of zone inhibition on MRSA (MRSA)	inhibition zone diameter MRSA (MRSA)	Diameter of zone inhibition on SA (S. aureus ATCC 2793)	inhibition zone diameter S. aureus (S. aureus ATCC 2793)	MIC S. aureus (S. aureus [1])	MIC (S. aureus [1])	Diameter of zone inhibition on PA (P. aeruginosa ATCC 27853 [2])	inhibition zone diameter P. aeruginosa (P. aeruginosa ATCC 27853 [2])	MIC P. aeruginosa (P. aeruginosa [3])	biofilm formation inhibition (%) (P. aeruginosa ATCC 27853 [4])	pyocyanin production inhibition (%) [5]	IC50 (HEK-293 cells)	swarming motility inhibition rate (%) (P. aeruginosa ATCC 27853 [6])	migration distance (mm) (P. aeruginosa ATCC 27853 [6])	MIC (P. aeruginosa [3])	MIC P. aeruginosa (P. aeruginosa [7])	MIC S. aureus (S. aureus [8])	MIC on Staphylcoccus epidermidis [9]
CC1(C)S[C@@H]2[C@H](NC(=O)[C@H](N)c3ccccc3)C(=O)N2[C@H]1C(=O)O [ampicillin]	15.5 mm	18 mm	14.5 mm	16 mm	10 µg/mL (≈ 28.6 µM)	10 µg/mL (≈ 28.6 µM)	0 mm	no observable zone diameter	inactive									
CC(=O)c1c(O)ccc(Br)c1O [compound 2, 3-Bromo-2,6-dihydroxyacetophenone]		30 mm		29 mm		12 µg/mL (≈ 51.9 µM)		1 mm		14%	52%	31.1 µM	86.5%	13.5 mm	780 µg/mL (≈ 3380 µM)			
CC(=O)c1cc(Br)c(O)c(Br)c1O [compound 3, 3,5-Dibromo-2,4-dihydroxyacetophenone]		20 mm		12 mm		390 µg/mL (≈ 1260 µM)		1 mm		14%	38%	> 32 µM	86.5%	13.5 mm	780 µg/mL (≈ 2520 µM)			
Oc1cc(Cc2cc(O)c(O)c(Br)c2Br)c(Br)c(Br)c1O [compound 7, 4,4′-methylenebis(5,6-dibromo-1,2-benzenediol)]																140 µg/mL (≈ 256 µM)	140 µg/mL (≈ 256 µM)	
Oc1cc(COCc2cc(O)c(O)c(Br)c2Br)c(Br)c(Br)c1O [compound 8, bis(2,3-dibromo-4,5-dihydroxybenzyl)ether]																70 µg/mL (≈ 121 µM)	70 µg/mL (≈ 121 µM)	35 µg/mL (≈ 60.6 µM)
CN(C)[C@@H]1C(O)=C(C(N)=O)C(=O)[C@@]2(O)C(O)=C3C(=O)c4c(O)cccc4[C@@](C)(O)[C@H]3C[C@@H]12 [tetracycline]	10.25 mm	12 mm	9.75 mm	14 mm	30 µg/mL (≈ 67.5 µM)	30 µg/mL (≈ 67.5 µM)	10.5 mm	10 mm	70 µg/mL (≈ 158 µM)						70 µg/mL (≈ 158 µM)			
NC[C@H]1O[C@H](O[C@H]2[C@H](O)[C@@H](O[C@H]3O[C@H](CO)[C@@H](O)[C@H](N)[C@H]3O)[C@H](N)C[C@@H]2N)[C@H](N)C[C@@H]1O [tobramycin]	5.5 mm	12 mm		15 mm	25 µg/mL (≈ 53.5 µM)	25 µg/mL (≈ 53.5 µM)	5.5 mm	15 mm	15 µg/mL (≈ 32.1 µM)						15 µg/mL (≈ 32.1 µM)			
